Test results published in US10550124B2, “Atropisomerism for increased kinase inhibitor selectivity” (SAN DIEGO STATE UNIVERSITY RESEARCH FOUNDATION, priority 2015, dated 2020).

Experiments:
Src kinase = Src kinase (Homo sapiens, UniProt P12931); assay: Z′-LYTE kinase inhibition assay, Src; type: biochemical; settings: for IC50: Src, error is standard deviation
From the text: Based on the observed stereochemical stabilities, we chose 1f, 2e, and 2f for further study and obtained inhibition data against Src kinase from Life Technologies' Z′-LYTE™ kinase assay (Scheme 3).
(§1) All samples were sent out to Life Technologies to obtain kinase inhibition data. A brief description of the assays and analyses are included below.
(§2) Assay Theory (SelectScreen® Kinase Profiling Services (Life Technologies, Madison, Wis. USA). The Z′-LYTE® biochemical assay employs a fluorescence-based, coupled-enzyme format and is based on the differential sensitivity of phosphorylated and non-phosphorylated peptides to proteolytic cleavage. The peptide substrate is labeled with two fluorophores one at each end—that make up a FRET pair.
(§3) In the primary reaction, the kinase transfers the gamma-phosphate of ATP to a single tyrosine, serine or threonine residue in a synthetic FRET-peptide. In the secondary reaction, a site-specific protease recognizes and cleaves non-phosphorylated FRET-peptides.
(§4) Phosphorylation of FRET-peptides suppresses cleavage by the Development Reagent. Cleavage disrupts FRET between the donor (i.e., coumarin) and acceptor (i.e., fluorescein) fluorophores on the FRET-peptide, whereas uncleaved, phosphorylated FRET-peptides maintain FRET. A ratiometric method, which calculates the ratio (the Emission Ratio) of donor emission to acceptor emission after excitation of the donor fluorophore at 400 nm, is used to quantitate reaction progress, as shown in the equation below: […]
(§5) A significant benefit of this ratiometric method for quantitating reaction progress is the elimination of well-to-well variations in FRET-peptide concentration and signal intensities. As a result, the assay yields very high Z′-factor values (>0.7) at a low percent phosphorylation. Both cleaved and uncleaved FRET-peptides contribute to the fluorescence signals and therefore to the Emission Ratio. The extent of phosphorylation of the FRET-peptide can be calculated from the Emission Ratio. The Emission Ratio will remain low if the FRET-peptide is phosphorylated (i.e., no kinase inhibition) and will he high if the FRET-peptide is non-phosphorylated (i.e., kinase inhibition).

Fgr = Fgr (Homo sapiens, UniProt P09769); assay: Z′-LYTE kinase inhibition assay, Fgr; type: biochemical; settings: for % inhibition: average of 2 runs
From the text: as §1, §2, §3, §4, §5

Yes = Yes (Homo sapiens, UniProt P07947); assay: Z′-LYTE kinase inhibition assay, Yes; type: biochemical; settings: for % inhibition: average of 2 runs
Yes, sequence (P07947 whole entry): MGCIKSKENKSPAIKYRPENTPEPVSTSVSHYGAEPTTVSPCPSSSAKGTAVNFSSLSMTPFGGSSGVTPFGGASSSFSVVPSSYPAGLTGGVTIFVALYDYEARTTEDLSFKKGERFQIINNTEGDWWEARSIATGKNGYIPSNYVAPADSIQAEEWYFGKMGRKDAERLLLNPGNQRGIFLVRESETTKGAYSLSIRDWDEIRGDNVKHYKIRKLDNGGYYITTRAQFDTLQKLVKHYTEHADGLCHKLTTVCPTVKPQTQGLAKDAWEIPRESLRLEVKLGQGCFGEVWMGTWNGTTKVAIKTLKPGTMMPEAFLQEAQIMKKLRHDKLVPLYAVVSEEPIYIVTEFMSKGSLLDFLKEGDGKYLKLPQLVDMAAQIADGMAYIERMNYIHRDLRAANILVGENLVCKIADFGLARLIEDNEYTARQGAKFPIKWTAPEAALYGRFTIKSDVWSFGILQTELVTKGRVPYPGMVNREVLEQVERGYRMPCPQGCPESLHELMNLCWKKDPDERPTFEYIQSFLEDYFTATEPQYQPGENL
From the text: as §1, §2, §3, §4, §5

Lyn = Lyn (Homo sapiens, UniProt P07948); assay: Z′-LYTE kinase inhibition assay, Lyn; type: biochemical; settings: for % inhibition: average of 2 runs
Lyn, sequence (P07948 whole entry): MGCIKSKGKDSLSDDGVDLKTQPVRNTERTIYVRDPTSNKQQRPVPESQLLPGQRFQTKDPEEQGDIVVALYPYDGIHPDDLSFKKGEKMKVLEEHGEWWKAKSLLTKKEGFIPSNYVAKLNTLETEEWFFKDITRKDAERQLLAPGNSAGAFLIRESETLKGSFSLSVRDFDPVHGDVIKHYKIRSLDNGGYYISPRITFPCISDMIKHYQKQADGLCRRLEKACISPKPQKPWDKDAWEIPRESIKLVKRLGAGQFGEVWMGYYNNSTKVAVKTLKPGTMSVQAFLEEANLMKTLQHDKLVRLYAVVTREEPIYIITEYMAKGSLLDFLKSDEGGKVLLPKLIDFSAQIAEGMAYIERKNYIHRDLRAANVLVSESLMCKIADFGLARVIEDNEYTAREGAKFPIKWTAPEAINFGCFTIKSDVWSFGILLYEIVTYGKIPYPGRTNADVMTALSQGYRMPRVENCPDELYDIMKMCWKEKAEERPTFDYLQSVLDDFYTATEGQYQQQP
From the text: as §1, §2, §3, §4, §5

Her-2 = Her-2 (Homo sapiens, UniProt P04626); assay: Z′-LYTE kinase inhibition assay, Her-2; type: biochemical; settings: average of 2 runs
From the text: as §1, §2, §3, §4, §5

Alk = Alk (Homo sapiens, UniProt Q9UM73); assay: Z′-LYTE kinase inhibition assay, Alk; type: biochemical; settings: for % inhibition: average of 2 runs
From the text: as §1, §2, §3, §4, §5

Ret = Ret (Homo sapiens, UniProt P07949); assay: Z′-LYTE kinase inhibition assay, Ret; type: biochemical; settings: for % inhibition: average of 2 runs
From the text: as §1, §2, §3, §4, §5

pdgfr-a = pdgfr-a (Homo sapiens, UniProt P16234); assay: Z′-LYTE kinase inhibition assay, pdgfr-a; type: biochemical; settings: for % inhibition: average of 2 runs
From the text: as §1, §2, §3, §4, §5

Abl = Abl (Homo sapiens, UniProt P00519); assay: Z′-LYTE kinase inhibition assay, Abl; type: biochemical; settings: for % inhibition: average of 2 runs
Abl, sequence (P00519 whole entry): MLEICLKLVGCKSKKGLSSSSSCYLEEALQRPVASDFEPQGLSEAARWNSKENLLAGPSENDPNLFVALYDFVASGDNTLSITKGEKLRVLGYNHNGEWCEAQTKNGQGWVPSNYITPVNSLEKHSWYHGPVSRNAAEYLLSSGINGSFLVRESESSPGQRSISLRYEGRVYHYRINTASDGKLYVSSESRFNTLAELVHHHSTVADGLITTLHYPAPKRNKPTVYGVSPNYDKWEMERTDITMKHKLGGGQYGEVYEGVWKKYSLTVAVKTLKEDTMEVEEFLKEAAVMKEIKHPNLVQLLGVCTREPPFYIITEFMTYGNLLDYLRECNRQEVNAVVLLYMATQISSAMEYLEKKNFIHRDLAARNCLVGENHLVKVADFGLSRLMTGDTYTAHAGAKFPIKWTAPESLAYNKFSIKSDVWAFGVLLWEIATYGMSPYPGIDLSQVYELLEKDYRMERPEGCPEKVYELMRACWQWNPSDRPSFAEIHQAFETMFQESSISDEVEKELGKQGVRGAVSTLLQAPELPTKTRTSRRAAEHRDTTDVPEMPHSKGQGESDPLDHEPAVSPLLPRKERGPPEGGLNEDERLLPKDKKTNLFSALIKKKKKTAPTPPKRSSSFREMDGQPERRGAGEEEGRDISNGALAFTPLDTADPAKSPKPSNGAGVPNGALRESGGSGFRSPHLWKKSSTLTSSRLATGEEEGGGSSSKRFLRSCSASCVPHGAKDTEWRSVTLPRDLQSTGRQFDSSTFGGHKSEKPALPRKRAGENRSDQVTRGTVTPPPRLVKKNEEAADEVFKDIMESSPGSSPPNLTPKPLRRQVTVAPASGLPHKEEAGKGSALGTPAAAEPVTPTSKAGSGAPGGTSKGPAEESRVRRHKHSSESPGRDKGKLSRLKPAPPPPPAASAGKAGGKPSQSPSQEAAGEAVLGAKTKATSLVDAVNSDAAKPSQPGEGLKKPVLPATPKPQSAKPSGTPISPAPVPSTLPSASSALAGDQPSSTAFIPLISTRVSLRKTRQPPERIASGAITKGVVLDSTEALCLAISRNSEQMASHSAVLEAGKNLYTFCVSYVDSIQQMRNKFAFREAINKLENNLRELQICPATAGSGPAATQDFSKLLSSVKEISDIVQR
From the text: as §1, §2, §3, §4, §5

Hck = Hck (Homo sapiens, UniProt P08631); assay: Z′-LYTE kinase inhibition assay, Hck; type: biochemical; settings: for % inhibition: average of 2 runs
Hck, sequence (P08631 whole entry): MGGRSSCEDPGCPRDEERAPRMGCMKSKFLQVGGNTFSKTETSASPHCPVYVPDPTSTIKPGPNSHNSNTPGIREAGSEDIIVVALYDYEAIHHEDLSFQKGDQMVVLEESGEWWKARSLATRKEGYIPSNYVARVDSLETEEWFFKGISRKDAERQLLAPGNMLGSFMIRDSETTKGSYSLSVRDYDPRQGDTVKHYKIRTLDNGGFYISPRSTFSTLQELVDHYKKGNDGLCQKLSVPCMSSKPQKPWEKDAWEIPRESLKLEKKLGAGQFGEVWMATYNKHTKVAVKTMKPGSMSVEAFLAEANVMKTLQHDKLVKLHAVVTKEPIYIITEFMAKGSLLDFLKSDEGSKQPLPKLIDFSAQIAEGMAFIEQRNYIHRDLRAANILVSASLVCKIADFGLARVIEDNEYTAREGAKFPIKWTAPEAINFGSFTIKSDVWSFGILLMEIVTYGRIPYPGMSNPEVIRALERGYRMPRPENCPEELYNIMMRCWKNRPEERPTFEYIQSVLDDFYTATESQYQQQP
From the text: as §1, §2, §3, §4, §5

Blk = Blk (Homo sapiens, UniProt P51451); assay: Z′-LYTE kinase inhibition assay, Blk; type: biochemical; settings: for % inhibition: average of 2 runs
Blk, sequence (P51451 whole entry): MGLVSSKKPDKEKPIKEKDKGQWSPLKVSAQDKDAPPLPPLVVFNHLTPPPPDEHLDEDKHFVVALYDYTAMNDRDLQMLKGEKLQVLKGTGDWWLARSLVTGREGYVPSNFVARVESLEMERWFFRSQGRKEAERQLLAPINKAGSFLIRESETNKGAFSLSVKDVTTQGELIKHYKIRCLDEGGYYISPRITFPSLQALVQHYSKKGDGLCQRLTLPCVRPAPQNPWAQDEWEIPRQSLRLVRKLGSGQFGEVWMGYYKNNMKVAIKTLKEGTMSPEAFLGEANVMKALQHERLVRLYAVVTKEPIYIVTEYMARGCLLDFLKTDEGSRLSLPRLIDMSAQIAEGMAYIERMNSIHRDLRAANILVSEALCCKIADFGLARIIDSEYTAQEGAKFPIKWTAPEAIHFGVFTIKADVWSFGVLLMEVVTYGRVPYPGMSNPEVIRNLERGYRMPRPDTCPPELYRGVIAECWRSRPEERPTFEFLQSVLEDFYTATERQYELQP
From the text: as §1, §2, §3, §4, §5

BTK = BTK (Homo sapiens, UniProt Q06187); assay: Z′-LYTE kinase inhibition assay, BTK; type: biochemical; settings: for % inhibition: average of 2 runs
From the text: as §1, §2, §3, §4, §5

pdgfr-b = pdgfr-b (Homo sapiens, UniProt P09619); assay: Z′-LYTE kinase inhibition assay, pdgfr-b; type: biochemical; settings: for % inhibition: average of 2 runs
From the text: as §1, §2, §3, §4, §5

Fyn = Fyn (Homo sapiens, UniProt P06241); assay: Z′-LYTE kinase inhibition assay, Fyn; type: biochemical; settings: for % inhibition: average of 2 runs
Fyn, sequence (P06241 whole entry): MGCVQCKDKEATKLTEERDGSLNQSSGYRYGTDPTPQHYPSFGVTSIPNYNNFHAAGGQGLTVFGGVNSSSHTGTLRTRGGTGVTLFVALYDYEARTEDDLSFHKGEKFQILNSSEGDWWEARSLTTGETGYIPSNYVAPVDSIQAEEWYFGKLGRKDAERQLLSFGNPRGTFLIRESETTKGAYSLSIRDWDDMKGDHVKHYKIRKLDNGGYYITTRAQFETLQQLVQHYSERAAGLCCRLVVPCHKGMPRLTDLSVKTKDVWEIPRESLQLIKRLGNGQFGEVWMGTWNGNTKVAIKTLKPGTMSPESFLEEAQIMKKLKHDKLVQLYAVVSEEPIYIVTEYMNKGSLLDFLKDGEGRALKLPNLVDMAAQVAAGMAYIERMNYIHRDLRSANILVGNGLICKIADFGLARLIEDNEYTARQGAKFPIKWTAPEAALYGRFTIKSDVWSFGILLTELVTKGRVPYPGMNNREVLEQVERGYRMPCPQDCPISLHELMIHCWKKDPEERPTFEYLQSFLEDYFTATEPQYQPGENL
From the text: as §1, §2, §3, §4, §5

EGFR = EGFR (Homo sapiens, UniProt P00533); assay: Z′-LYTE kinase inhibition assay, EGFR; type: biochemical; settings: for % inhibition: average of 2 runs
From the text: as §1, §2, §3, §4, §5

CSK = CSK (Homo sapiens, UniProt P41240); assay: Z′-LYTE kinase inhibition assay, CSK; type: biochemical; settings: for % inhibition: average of 2 runs
CSK, sequence (P41240 whole entry): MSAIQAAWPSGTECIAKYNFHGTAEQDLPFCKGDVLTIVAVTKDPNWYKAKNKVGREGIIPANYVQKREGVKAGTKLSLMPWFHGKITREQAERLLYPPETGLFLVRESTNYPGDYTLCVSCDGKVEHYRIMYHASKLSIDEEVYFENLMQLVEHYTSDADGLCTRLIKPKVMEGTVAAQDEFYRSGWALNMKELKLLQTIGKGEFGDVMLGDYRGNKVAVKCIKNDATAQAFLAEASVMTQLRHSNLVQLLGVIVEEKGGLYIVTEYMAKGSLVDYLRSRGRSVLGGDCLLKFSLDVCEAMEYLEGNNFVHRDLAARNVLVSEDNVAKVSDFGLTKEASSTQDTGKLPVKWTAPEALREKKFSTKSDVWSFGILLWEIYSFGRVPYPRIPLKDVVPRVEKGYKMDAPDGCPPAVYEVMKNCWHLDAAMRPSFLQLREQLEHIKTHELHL
From the text: as §1, §2, §3, §4, §5

Lck = Lck (Homo sapiens, UniProt P06239); assay: Z′-LYTE kinase inhibition assay, Lck; type: biochemical; settings: for % inhibition: average of 2 runs
From the text: as §1, §2, §3, §4, §5

[1] = tested on: panel of 18 tyrosine kinases; assay: Kinase inhibitor profiling across a panel of tyrosine kinases (selectivity); type: biochemical; settings: for S(40%): number of kinases inhibited greater than 40% divided by number of kinases tested (including Src)
Experimental: In order to probe the effect of atropisomeric conformation on kinase selectivity we subjected 1f, 2e, and 2f to kinase inhibitor profiling across a panel of tyrosine kinases at 1000 nM and 5000 nM (data for 2e shown in Scheme 4 below).
To analyze each analog's selectivity across the panel we turned to selectivity scores (Davis et al., Nat. Biotechnol. 2011, 29, 1046-51), simply the number of kinases inhibited above a certain threshold divided by the number of kinases evaluated. […] For example at 1000 nM 2e-(R) yielded an S(40%) of 0.11 while 2e-(S) gave an S(40%) of 0.16. […] Differences in selectivity between 2e-(R) and 2e-(S) at 5000 nM (4.5 times the IC50 of 2e-(S) toward Src) and for 5 at 1000 nM (6.25 times the IC50 of 5 toward Src) can be viewed graphically across tyrosine kinases (FIG. 3). Importantly, similar trends were also observed across each of the atropisomeric series tested.
as §1, §2, §3, §4, §5

Kit = Kit (Homo sapiens, UniProt P10721); assay: Z′-LYTE kinase inhibition assay, Kit; type: biochemical; settings: for % inhibition: average of 2 runs
From the text: as §1, §2, §3, §4, §5

[2] = Experimental measurement of the barriers to rotation (chiral HPLC); type: physicochemical
Experimental: Enantiomerically enriched atropisomeric pyrrolopyrimidine analogues were isolated via chiral HPLC (Daicel Chiralpak IA PN:80335, 3 mL/min, 80:20 or 50:50 hexanes:[…], 25° C.) and evaporated in vacuo. The enantiomerically enriched analogues were then dissolved in ethanol and placed in a sealed 2-dram vial and heated under constant temperature on an aluminum block. At each time point, an aliquot of the mixture was removed and quenched in an HPLC vial containing ice cold 80:20 hexanes:ethanol. Each sample was then injected into the chiral HPLC system (Daicel Chiralpak IA PN:80325, 1 mL/min, 80:20 or 50:50 hexanes:ethanol, 25° C.) and enantiomeric excess (ee) measured. The timepoint and enantiomeric excess (ee) data was then plotted in order to determine an observed rate constant, kobs, at the corresponding temperature. The barrier to rotation was then calculated using the relationship of kracemization=2*kenantiomerization and then substituted into the Gibbs Free Energy Equation:
[formula] where h=Planck Constant, kb=Boltzmann Constant, T=Temp. (K), R=Gas Constant.

[3] = % inhibition 2e-(S)/% inhibition 2e-(R) at 5000 nM

Src kinase, sequence (P12931 whole entry): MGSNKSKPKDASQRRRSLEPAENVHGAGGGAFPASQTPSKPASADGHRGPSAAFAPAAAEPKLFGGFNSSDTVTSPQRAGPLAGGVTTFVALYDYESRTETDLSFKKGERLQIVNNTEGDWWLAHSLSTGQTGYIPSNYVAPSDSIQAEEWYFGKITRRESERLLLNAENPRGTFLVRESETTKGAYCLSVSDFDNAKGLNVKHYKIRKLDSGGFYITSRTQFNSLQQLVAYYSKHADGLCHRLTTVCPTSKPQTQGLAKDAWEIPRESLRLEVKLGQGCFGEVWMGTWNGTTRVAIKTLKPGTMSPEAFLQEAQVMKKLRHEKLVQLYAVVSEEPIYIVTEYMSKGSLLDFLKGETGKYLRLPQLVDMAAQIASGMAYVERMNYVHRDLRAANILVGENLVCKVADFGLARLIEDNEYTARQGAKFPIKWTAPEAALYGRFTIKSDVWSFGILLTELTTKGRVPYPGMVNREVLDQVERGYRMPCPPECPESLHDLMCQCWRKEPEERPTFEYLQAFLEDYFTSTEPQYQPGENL

COc1ccc(Br)c(-c2c(Cl)n(C3CCCC3)c3ncnc(N)c23)c1 (single isomer, unassigned) [1f-(R), 5-(2-bromo-5-methoxyphenyl)-6-chloro-7-cyclopentyl-7H-pyrrolo[2,3-d]pyrimidin-4-amine]
IC50 (Src kinase): > 10000 nM

COc1ccc(Cl)c(-c2c(Cl)n(C(C)(C)C)c3ncnc(N)c23)c1 (single isomer, unassigned) [2e-(S), 7-(tert-butyl)-6-chloro-5-(2-chloro-5-methoxyphenyl)-7H-pyrrolo[2,3d]pyrimidin-4-amine]
% inhibition (Fgr; 1000 nM, 1 µM): 58%
% inhibition (Fgr; 5000 nM, 5 µM): 81%
SIR (5000 nM) (Fgr; [3]): 1.05
IC50 of Kinase/IC50 of Yes (Yes; Yes relative to Yes): 1
% inhibition (Yes; Yes, 1000 nM): 53%
% inhibition (Yes; Yes, 5000 nM, 5 µM): 77%
SIR (5000 nM) (Yes; Yes, % inhibition 2e-(S)/% inhibition 2e-(R) at 5000 nM): 0.97
IC50 (Yes; Yes, error is standard deviation): 727 nM
% inhibition (Lyn; 1000 nM, 1 µM): 36%
% inhibition (Lyn; 5000 nM, 5 µM): 75%
SIR (5000 nM) (Lyn; [3]): 1.31
% inhibition (Her-2; 1000 nM, 1 µM): −7%
% inhibition (Her-2; 5000 nM): 0%
% inhibition (Alk; 1000 nM, 1 µM): 5%
% inhibition (Alk; 5000 nM, 5 µM): 7%
SIR (5000 nM) (Alk; [3]): 0.38
IC50 of Kinase/IC50 of Yes (Ret; Ret relative to Yes): 10.53
% inhibition (Ret; Ret, 1000 nM, 1 µM): 14%
% inhibition (Ret; Ret, 5000 nM): 32%
% inhibition (Ret; Ret, 5000 nM, 5 µM): 32%
SIR (5000 nM) (Ret; Ret, % inhibition 2e-(S)/% inhibition 2e-(R) at 5000 nM): 0.44
IC50 (Ret; Ret, error is standard deviation): 7660 nM
% inhibition (pdgfr-a; 1000 nM): 3%
% inhibition (pdgfr-a; 5000 nM, 5 µM): 13%
SIR (5000 nM) (pdgfr-a; [3]): 1.63
IC50 of Kinase/IC50 of Yes (Abl; Abl relative to Yes): 1.96
% inhibition (Abl; Abl, 1000 nM, 1 µM): 36%
% inhibition (Abl; Abl, 5000 nM): 67%
% inhibition (Abl; Abl, 5000 nM, 5 µM): 67%
SIR (5000 nM) (Abl; Abl, % inhibition 2e-(S)/% inhibition 2e-(R) at 5000 nM): 2.57
IC50 (Abl; Abl, error is standard deviation): 1430 nM
% inhibition (Hck; 1000 nM, 1 µM): 32%
% inhibition (Hck; 5000 nM, 5 µM): 50%
SIR (5000 nM) (Hck; [3]): 1.25
% inhibition (Blk; 1000 nM, 1 µM): 21%
% inhibition (Blk; 5000 nM, 5 µM): 47%
SIR (5000 nM) (Blk; [3]): 1.46
% inhibition (BTK; 1000 nM, 1 µM): 18%
% inhibition (BTK; 5000 nM, 5 µM): 54%
SIR (5000 nM) (BTK; [3]): 1.86
% inhibition (pdgfr-b; 1000 nM, 1 µM): 13%
% inhibition (pdgfr-b; 5000 nM, 5 µM): 16%
SIR (5000 nM) (pdgfr-b; [3]): 1.23
% inhibition (Fyn; 1000 nM, 1 µM): 26%
% inhibition (Fyn; 5000 nM, 5 µM): 56%
SIR (5000 nM) (Fyn; [3]): 1.27
IC50 of Kinase/IC50 of Yes (EGFR; EGFR relative to Yes): >10.0
% inhibition (EGFR; EGFR, 1000 nM, 1 µM): 10%
% inhibition (EGFR; EGFR, 5000 nM, 5 µM): 21%
IC50 (EGFR; EGFR, error is standard deviation): > 10000 nM
% inhibition (CSK; 1000 nM, 1 µM): 19%
% inhibition (CSK; 5000 nM, 5 µM): 45%
SIR (5000 nM) (CSK; [3]): 1.28
% inhibition (Lck; 1000 nM, 1 µM): 26%
% inhibition (Lck; 5000 nM, 5 µM): 54%
SIR (5000 nM) (Lck; [3]): 1.05
S(40%) ([1]; 1000 nM): 0.16
S(40%) ([1]; 5000 nM): 0.61
increase of 5's inherent selectivity ([1]; less potent towards Ret): ~8 fold
IC50 of Kinase/IC50 of Yes (Src kinase; Src relative to Yes): 1.64
IC50 (Src kinase): 1190 nM
% inhibition (Kit; 1000 nM, 1 µM): 18%
% inhibition (Kit; 5000 nM, 5 µM): 36%
SIR (5000 nM) (Kit; [3]): 1.38

COc1ccc(Cl)c(-c2c(Cl)n(C3CCCC3)c3ncnc(N)c23)c1 [Compound 1e, 6-chloro-5-(2-chloro-5-methoxyphenyl)-7-cyclopentyl-7H-pyrrolo[2,3-d]pyrimidin-4-amine]
Barrier to Rotation ([2]; calculated from kobs, Gibbs free energy equation): 27.2 kcal/mol
Barrier to Rotation kobs ([2]; observed rate constant of racemization, in ethanol, heated at constant temperature, in s^-1 (unit assumed)): 1.24E−04
